Earlier results in patent US20120315337A1, “MULTIPARTICULATE 5-HTP COMPOSITIONS AND RELATED METHODS” (priority 2011, published 2012).

Details: comparison of antidepressant drug fluoxamine with 5-HTP; background statement

SMILES | efficacy in clinical trial
N[C@@H](Cc1c[nH]c2ccc(O)cc12)C(=O)O [5-HTP, L-5-hydroxytryptophan] | equally effective
COCCCC/C(=N\OCCN)c1ccc(C(F)(F)F)cc1 [fluoxamine] | equally effective
